Experimental data reported in ChEMBL document CHEMBL4354824, “4-Aryl-1-oxa-4,9-diazaspiro[5.5]undecane Derivatives as Dual μ-Opioid Receptor Agonists and σ1 Receptor Antagonists for the Treatment of Pain” (J Med Chem, 2020).

Key:
[1] = target: Sigma non-opioid intracellular receptor 1 (Homo sapiens, UniProt Q99720); experiment: Displacement of [3H]-(+)-pentazocine from human sigma-1 receptor expressed in HEK293 membranes incubated for 120 mins by liquid scintillation counting method
[2] = target: T1, Mu-type opioid receptor (Homo sapiens, UniProt P35372); experiment: biochemical
Description: Displacement of [3H]-DAMGO from human MOR expressed in CHOK1 cell membranes incubated for 60 mins by liquid scintillation counting method

[3] = target: T1, Mu-type opioid receptor; experiment: Agonist activity at human MOR expressed in CHOK1 cells assessed as […] of cAMP accumulation incubated for 45 mins by HTRF assay; format: functional, cell-based
[4] = target: T1, Mu-type opioid receptor; experiment: Agonist activity at human MOR expressed in CHOK1 cells assessed as […] of cAMP accumulation incubated for 45 mins by HTRF assay relative to DAMGO; format: functional, cell-based
[5] = target: T2, Alpha-1A adrenergic receptor (Homo sapiens) (UniProt P35348); experiment: Displacement of [3H]-prazosin from human alpha1A adrenoreceptor expressed in enriched membranes at 1 uM incubated for 90 mins by liquid scintillation counting method relative to control; format: cell membranes
T2 sequence (whole entry): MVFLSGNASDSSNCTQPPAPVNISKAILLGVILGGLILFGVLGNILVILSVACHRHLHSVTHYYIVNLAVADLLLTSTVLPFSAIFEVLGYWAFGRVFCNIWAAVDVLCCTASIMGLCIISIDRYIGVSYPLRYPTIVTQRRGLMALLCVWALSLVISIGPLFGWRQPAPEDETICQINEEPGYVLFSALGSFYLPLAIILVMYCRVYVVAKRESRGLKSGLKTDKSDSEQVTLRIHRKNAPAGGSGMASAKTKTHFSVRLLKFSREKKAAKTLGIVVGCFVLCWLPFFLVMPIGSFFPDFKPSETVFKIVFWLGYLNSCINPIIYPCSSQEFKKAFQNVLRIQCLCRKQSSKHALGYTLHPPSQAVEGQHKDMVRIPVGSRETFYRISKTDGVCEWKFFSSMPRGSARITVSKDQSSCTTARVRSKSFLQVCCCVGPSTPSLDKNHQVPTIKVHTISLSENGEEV

[6] = target: Voltage-gated inwardly rectifying potassium channel KCNH2 (Homo sapiens, UniProt Q12809)
Chain of Voltage-gated inwardly rectifying potassium channel KCNH2 (Q12809 whole entry): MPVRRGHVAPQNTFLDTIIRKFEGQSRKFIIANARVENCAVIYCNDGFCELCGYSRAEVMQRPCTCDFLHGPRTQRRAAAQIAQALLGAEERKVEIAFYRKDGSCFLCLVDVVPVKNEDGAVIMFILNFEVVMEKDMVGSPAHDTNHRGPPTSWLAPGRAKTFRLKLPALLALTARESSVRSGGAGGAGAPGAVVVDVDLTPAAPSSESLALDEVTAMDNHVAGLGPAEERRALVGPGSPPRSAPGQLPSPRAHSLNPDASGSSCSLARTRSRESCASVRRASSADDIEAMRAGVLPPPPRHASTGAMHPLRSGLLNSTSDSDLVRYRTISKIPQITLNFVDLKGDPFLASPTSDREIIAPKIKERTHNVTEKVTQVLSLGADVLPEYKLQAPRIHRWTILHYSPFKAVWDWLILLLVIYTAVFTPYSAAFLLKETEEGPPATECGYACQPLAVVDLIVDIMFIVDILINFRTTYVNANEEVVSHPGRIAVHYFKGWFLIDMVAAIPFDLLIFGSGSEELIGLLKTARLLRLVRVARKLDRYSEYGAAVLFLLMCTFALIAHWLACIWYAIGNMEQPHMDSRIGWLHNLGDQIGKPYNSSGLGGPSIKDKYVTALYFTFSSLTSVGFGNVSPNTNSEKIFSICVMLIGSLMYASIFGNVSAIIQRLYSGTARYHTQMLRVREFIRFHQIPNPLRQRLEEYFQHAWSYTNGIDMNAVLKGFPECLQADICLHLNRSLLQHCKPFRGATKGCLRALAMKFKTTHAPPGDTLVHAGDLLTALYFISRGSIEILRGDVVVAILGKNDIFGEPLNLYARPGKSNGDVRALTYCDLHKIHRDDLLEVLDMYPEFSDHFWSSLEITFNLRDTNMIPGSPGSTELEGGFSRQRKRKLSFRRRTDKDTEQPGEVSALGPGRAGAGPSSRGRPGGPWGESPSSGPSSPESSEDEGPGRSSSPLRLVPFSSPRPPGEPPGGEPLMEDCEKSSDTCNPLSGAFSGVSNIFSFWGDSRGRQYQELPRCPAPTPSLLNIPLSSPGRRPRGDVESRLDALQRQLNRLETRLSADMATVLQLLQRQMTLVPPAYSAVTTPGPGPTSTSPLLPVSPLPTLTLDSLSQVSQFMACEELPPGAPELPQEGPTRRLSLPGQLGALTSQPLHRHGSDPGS
Description: Inhibition of human ERG expressed in CHOK1 cells assessed as reduction in channel current at -80 mV holding potential by whole cell patch clamp assay

T1 sequence (P35372 whole entry): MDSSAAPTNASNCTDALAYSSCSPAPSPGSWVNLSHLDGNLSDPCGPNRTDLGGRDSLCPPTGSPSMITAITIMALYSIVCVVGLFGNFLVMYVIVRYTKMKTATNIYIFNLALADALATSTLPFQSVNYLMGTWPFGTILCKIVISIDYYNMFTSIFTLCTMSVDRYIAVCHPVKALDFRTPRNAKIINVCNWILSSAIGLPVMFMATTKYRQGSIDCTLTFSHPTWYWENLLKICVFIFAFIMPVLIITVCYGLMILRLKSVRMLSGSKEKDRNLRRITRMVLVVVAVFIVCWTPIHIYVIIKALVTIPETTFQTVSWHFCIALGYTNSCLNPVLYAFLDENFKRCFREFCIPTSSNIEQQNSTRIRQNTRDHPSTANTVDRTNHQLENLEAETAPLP
Chain of Sigma non-opioid intracellular receptor 1 (Q99720 whole entry): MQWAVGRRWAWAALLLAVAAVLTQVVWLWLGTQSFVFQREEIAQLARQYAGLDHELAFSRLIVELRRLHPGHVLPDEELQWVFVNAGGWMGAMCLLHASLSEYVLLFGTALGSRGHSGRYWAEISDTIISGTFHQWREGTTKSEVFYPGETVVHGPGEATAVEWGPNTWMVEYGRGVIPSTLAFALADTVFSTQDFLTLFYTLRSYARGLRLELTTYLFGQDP

Structure (SMILES)	Ki [1] [nM]	Ki [2] [nM]	EC50 [3] [nM]	Emax [4] [%]	inhibition [5] [%]	IC50 [6] [nM]
COc1ccccc1N1CC2(CCN(CCc3ccccc3)CC2)OC(C)C1=O (stereo not drawn)	38	57	144	81	78	–
CC1OC2(CCN(CCc3ccccn3)CC2)CN(c2ccccc2)C1=O (stereo not drawn)	53	90	229	85	49	2000
CC1OC2(CCN(CCc3ccccc3)CC2)CN(c2cnccn2)C1=O (stereo not drawn)	13	304	527	55	64	100
CC1OC2(CCN(CCc3ccccc3)CC2)CN(c2ncccc2C(F)(F)F)C1=O (stereo not drawn)	54	262	343	100	60	8200
O=C1N(c2ccccc2)CC2(CCN(CCc3ccccc3)CC2)OC12CC2	9	15	11	93	87	1200
CC(C)C1OC2(CCN(CCc3ccccc3)CC2)CN(c2ccccc2)C1=O (stereo not drawn)	10	1	0.2	96	65	1200
CC(=O)Nc1ccccc1CCN1CCC2(CC1)CN(c1ccccc1)C(=O)C(C)O2 (stereo not drawn)	656	190	342	95	68	–
CC1OC2(CCN(CCc3ccccn3)CC2)CN(c2cnccc2C(F)(F)F)C1=O (stereo not drawn)	622	127	767	93	47	–
CC1OC2(CCN(CCc3ccccc3)CC2)CN(c2ccccc2)C1=O (racemic)	6	–	–	–	–	–
CC1OC2(CCN(CCc3cccnc3)CC2)CN(c2ccccc2)C1=O (stereo not drawn)	91	117	853	85	67	–
CC1OC2(CCN(CCc3ccccc3)CC2)CN(c2ccccc2Cl)C1=O (stereo not drawn)	8	3	1	96	75	1000
CC1OC2(CCN(CCc3ccccc3)CC2)CN(c2cccnc2)C1=O (stereo not drawn)	68	304	627	54	69	–
COC(=O)CC1OC2(CCN(CCc3ccccc3)CC2)CN(c2ccccc2)C1=O (stereo not drawn)	54	92	181	85	72	200
CC1OC2(CCN(CCc3cccc(C#N)c3)CC2)CN(c2ccccc2)C1=O (stereo not drawn)	28	49	61	88	80	600
C[C@H]1OC2(CCN(CCc3ccccc3)CC2)CN(c2ccccc2)C1=O	21	–	–	95	75	–
O=C1C(CO)OC2(CCN(CCc3ccccc3)CC2)CN1c1ccccc1 (stereo not drawn)	209	46	125	88	55	1100
CC1OC2(CCN(CCc3ccc(F)cc3)CC2)CN(c2ccccc2)C1=O (stereo not drawn)	11	19	25	95	80	100

Structure (SMILES)	Ki [1] [nM]	Ki [2] [nM]	EC50 [3] [nM]	Emax [4] [%]	inhibition [5] [%]	IC50 [6] [nM]
O=C1C(COCc2ccccc2)OC2(CCN(CCc3ccccc3)CC2)CN1c1ccccc1 (stereo not drawn)	40	40	107	96	94	100
CC1(C)OC2(CCN(CCc3ccccc3)CC2)CN(c2ccccc2)C1=O	13	3	4	98	92	100
CC1OC2(CCN(CCc3ccccc3)CC2)CN(c2ccccn2)C1=O (stereo not drawn)	13	930	1990	50	63	–
CC1OC2(CCN(CCc3ccccc3)CC2)CN(c2ncccc2F)C1=O (stereo not drawn)	39	93	199	90	77	1200
CC1OC2(CCN(CCc3ccccc3)CC2)CN(c2cccnc2C(F)(F)F)C1=O (stereo not drawn)	48	123	186	87	55	3800
CC1OC2(CCN(CCc3ccccc3)CC2)CN(c2cncc(C(F)(F)F)c2)C1=O (stereo not drawn)	14	261	721	92	87	500
O=C1COC2(CCN(Cc3ccccc3)CC2)CN1c1ccccc1	26	534	3040	74	–	–
CCC1OC2(CCN(CCc3ccccc3)CC2)CN(c2ccccc2)C1=O (stereo not drawn)	6	3	1	99	75	400
COCC1OC2(CCN(CCc3ccccc3)CC2)CN(c2ccccc2)C1=O (stereo not drawn)	32	13	32	90	63	1900
C[C@@H]1OC2(CCN(CCc3ccccc3)CC2)CN(c2ccccc2)C1=O	14	–	–	83	68	–
CC1OC2(CCN(CCc3ccccc3)CC2)CN(c2cncc(F)c2)C1=O (stereo not drawn)	3	204	230	87	85	1100
CC1OC2(CCN(CCc3ccccc3F)CC2)CN(c2ccccc2)C1=O (stereo not drawn)	–	–	–	95	81	–
CC1OC2(CCN(CCc3ccccc3)CC2)CN(c2ccccc2F)C1=O (stereo not drawn)	11	8	4	94	68	1200
CC1OC2(CCN(CCc3ccccc3)CC2)CN(c2cccc(C(F)(F)F)n2)C1=O (stereo not drawn)	8	90	219	91	95	–
C[C@H]1OC2(CCN(CCc3ccccc3F)CC2)CN(c2ncccc2C(F)(F)F)C1=O	103	34	65	98	50	6600
CC1OC2(CCN(CCc3ccncc3)CC2)CN(c2ccccc2)C1=O (stereo not drawn)	112	516	1420	81	30	–
